# Legend:
# [1] = molecular target: T1, Kappa-type opioid receptor (Cavia porcellus, UniProt P41144); assay: Binding affinity at kappa opioid receptor 1 in guinea pig brain by [3H]U-69593 displacement.
# [2] = molecular target: T2, Delta-type opioid receptor (Rattus norvegicus, UniProt P33533); assay: Opioid receptor delta 1 binding affinity was determined by inhibition of binding of [3H]DADLE to rat brain membrane
# Mu-type opioid receptor [3] = molecular target: Mu-type opioid receptor (Rattus norvegicus, UniProt P33535); assay: Binding affinity at mu opioid receptor 1 in rat brain membrane by [3H]DAMGO displacement.; assay type: cell membranes
# Rattus norvegicus = species: Rattus norvegicus; assay: Selectivity ratio (Ki value towards kappa receptor compared to that of delta receptor).
# [4] = molecular target: Opioid receptors; mu & delta (Rattus norvegicus) (UniProt P33533+P33535); assay: Selectivity ratio (Ki value towards mu receptor compared to that of delta receptor).; assay type: protein assay
# [5] = molecular target: T2, Delta-type opioid receptor; assay: Binding affinity at delta opioid receptor 1 in rat brain membrane by [3H]DADLE displacement.; assay type: cell membranes
# Mu-type opioid receptor [6] = molecular target: Mu-type opioid receptor (Cavia porcellus, UniProt P97266); assay: The ability of compound to inhibit [35S][…] binding in guinea pig caudate stimulated by DAMGO (Opioid receptor mu 1) antagonist; assay type: functional
# [7] = molecular target: T1, Kappa-type opioid receptor; assay: The ability of compound to inhibit [35S][…] binding in guinea pig caudate stimulated by U69,593 (Opioid receptor kappa 1) antagonist; assay type: functional
# Sequence of Mu-type opioid receptor (Rattus norvegicus, UniProt P33535) (P33535 whole entry): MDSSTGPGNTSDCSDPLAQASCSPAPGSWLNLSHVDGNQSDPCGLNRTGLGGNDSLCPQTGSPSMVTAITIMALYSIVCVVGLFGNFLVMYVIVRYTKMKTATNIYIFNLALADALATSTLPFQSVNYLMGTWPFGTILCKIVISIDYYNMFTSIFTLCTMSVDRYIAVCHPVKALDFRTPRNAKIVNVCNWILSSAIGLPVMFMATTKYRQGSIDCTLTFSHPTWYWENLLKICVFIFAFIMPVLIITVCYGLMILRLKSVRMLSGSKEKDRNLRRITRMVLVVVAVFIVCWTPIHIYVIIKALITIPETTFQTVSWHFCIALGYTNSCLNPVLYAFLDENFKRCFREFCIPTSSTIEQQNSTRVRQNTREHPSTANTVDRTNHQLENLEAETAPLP
# Sequence of Mu-type opioid receptor (Cavia porcellus, UniProt P97266) (P97266 whole entry): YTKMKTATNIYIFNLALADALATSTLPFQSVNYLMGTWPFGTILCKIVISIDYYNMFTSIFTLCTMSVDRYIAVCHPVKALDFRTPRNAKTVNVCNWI
# Sequence of Opioid receptors; mu & delta (Rattus norvegicus) (P33533 whole entry, looked up): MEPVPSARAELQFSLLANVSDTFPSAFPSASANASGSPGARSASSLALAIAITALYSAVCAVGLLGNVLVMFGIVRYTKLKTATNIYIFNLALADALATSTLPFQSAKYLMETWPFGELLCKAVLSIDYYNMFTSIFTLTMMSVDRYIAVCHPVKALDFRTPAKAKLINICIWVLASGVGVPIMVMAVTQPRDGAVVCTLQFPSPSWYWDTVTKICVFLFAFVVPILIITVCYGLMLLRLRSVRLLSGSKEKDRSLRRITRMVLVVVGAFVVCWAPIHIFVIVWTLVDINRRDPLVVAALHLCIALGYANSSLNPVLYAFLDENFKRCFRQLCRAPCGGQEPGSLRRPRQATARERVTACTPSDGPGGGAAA
# Sequence of Opioid receptors; mu & delta (Rattus norvegicus) (P33535 whole entry, looked up): as the sequence (P33535 whole entry) above
# T2 sequence (P33533 whole entry): as the sequence (P33533 whole entry, looked up) above
# T1 sequence (P41144 whole entry): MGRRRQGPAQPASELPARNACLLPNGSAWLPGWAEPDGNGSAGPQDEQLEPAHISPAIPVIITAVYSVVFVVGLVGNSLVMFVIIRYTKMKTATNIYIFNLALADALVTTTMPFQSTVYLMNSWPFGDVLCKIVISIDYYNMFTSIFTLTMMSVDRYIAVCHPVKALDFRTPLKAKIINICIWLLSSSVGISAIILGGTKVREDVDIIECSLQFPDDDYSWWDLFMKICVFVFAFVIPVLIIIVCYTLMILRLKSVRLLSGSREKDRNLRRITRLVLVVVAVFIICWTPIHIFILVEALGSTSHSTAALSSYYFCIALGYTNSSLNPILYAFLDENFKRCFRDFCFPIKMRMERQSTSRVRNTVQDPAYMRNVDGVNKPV
SMILES,Ki [1] [nM],Ki [2] [nM],Ki (Mu-type opioid receptor [3]) [nM],Selectivity (Rattus norvegicus),Selectivity [4],Ki [5] [nM],Ki (Mu-type opioid receptor [6]) [nM],Ki [7] [nM]
CN1CC[C@]23c4c5ccc(O)c4O[C@H]2c2[nH]c4ccccc4c2C[C@@]3(O)[C@H]1C5 [OXYMORPHINDOLE],395,2,171,198,86,–,–,–
C=CCN1CC[C@]23c4c5ccc(O)c4O[C@H]2c2c(c4ccccc4n2Cc2ccccc2Cl)C[C@@]3(OCc2ccccc2Cl)[C@H]1C5,721000,–,1230,4800,8.2,151,–,–
CCO[C@@]12Cc3c([nH]c4ccccc34)[C@]3(C)Oc4c(O)ccc5c4[C@@]31CCN(CC1CCC1)[C@@H]2C5,378,–,409,30,32,12.6,–,–
CO[C@@]12Cc3c([nH]c4ccccc34)[C@@H]3Oc4c(O)ccc5c4[C@@]31CCN(CC1CCCCC1)[C@@H]2C5,3250,–,14000,8.8,38,370,–,–
CCO[C@@]12Cc3c([nH]c4ccccc34)[C@]3(C)Oc4c(O)ccc5c4[C@@]31CCN(C)[C@@H]2C5,725,–,515,186,132,3.9,–,–
C=CCN1CC[C@]23c4c5ccc(O)c4O[C@H]2c2c(c4ccccc4n2C)C[C@@]3(OC)[C@H]1C5,149,–,731,–,–,1.97,–,–
CCO[C@@]12Cc3c(oc4ccccc34)[C@@H]3Oc4c(O)ccc5c4[C@@]31CCN(CC1CC1)[C@@H]2C5,94,–,185,80,157,1.18,> 10000,> 10000
CCCN1CC[C@]23c4c5ccc(O)c4O[C@H]2c2c(c4ccccc4n2C)C[C@@]3(OC)[C@H]1C5,115,–,106,10,9.2,11.5,–,–
C=CCN1CC[C@]23c4c5ccc(O)c4O[C@H]2c2[nH]c4ccccc4c2C[C@@]3(OC)[C@H]1C5,233,–,869,61,229,3.8,–,–
CC(C)CCO[C@@]12Cc3c([nH]c4ccccc34)[C@]3(C)Oc4c(O)ccc5c4[C@@]31CCN(C)[C@@H]2C5,1260,–,238,99,19,12.8,–,–
C=CCN1CC[C@]23c4c5ccc(O)c4O[C@H]2c2[nH]c4ccccc4c2C[C@@]3(OCC)[C@H]1C5,349,–,1370,134,526,2.6,> 10000,> 10000
CCO[C@@]12Cc3c([nH]c4ccccc34)[C@]3(C)Oc4c(O)ccc5c4C31CCN(CC1CC1)[C@@H]2C5,134,–,340,30,77,4.4,> 10000,> 10000
Oc1ccc2c3c1O[C@H]1c4[nH]c5ccccc5c4C[C@@]4(O)[C@@H](C2)N(CC2CC2)CC[C@]314 [NALTRINDOLE],15.8,–,–,–,–,0.81,–,–
C=CCO[C@@]12Cc3c(n(CC=C)c4ccccc34)[C@@H]3Oc4c(O)ccc5c4[C@@]31CCN(CC=C)[C@@H]2C5,763,–,1000,105,137,7.3,–,–
CCCO[C@@]12Cc3c(n(CCC)c4ccccc34)[C@@H]3Oc4c(O)ccc5c4[C@@]31CCN(CC1CC1)[C@@H]2C5,3.1,–,14.8,2.4,12,1.28,–,–
CCCO[C@@]12Cc3c([nH]c4ccccc34)[C@]3(C)Oc4c(O)ccc5c4[C@@]31CCN(CC1CC1)[C@@H]2C5,504,–,555,95,105,5.3,–,–
CO[C@@]12Cc3c([nH]c4ccccc34)[C@]3(C)Oc4c(O)ccc5c4[C@@]31CCN(C)[C@@H]2C5,1530,–,58,387,15,3.95,–,–
CCCO[C@@]12Cc3c([nH]c4ccccc34)[C@]3(C)Oc4c(O)ccc5c4[C@@]31CCN(C)[C@@H]2C5,556,–,30,105,5.7,5.3,–,–
C=CCN1CC[C@]23c4c5ccc(O)c4O[C@H]2c2oc4ccccc4c2C[C@@]3(OCC)[C@H]1C5,68,–,22.8,57,19,1.2,–,–

# Reference: ChEMBL document CHEMBL1135665, “Synthesis and biological evaluation of 14-alkoxymorphinans. 17. Highly delta opioid receptor selective 14-alkoxy-substituted indolo- and benzofuromorphinans” (J Med Chem, 2002)
